This note sets out measurements from patent publication US20160158200A1, “Combinations of Hepatitis C Virus Inhibitors” (priority 2013, published 2016).

The test system of this assay is HCV genotype-1a variant with glutamine 30 changed to glutamate in the NS5A protein. In kind it is cell-based. As to conditions: test compound titrated with BMS-790052 fixed at 200 nM; genotype 1a Q30E replicon. The gist of the method:
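Synergy was assessed by combining several fixed amounts of an NS5A-targeting compound with a titration of the second compound of interest.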

`CC(C)OC(=O)N1CCC[C@H]1c1ncc(-c2ccc(-c3ccc(-c4cnc([C@@H]5CCCN5C(=O)OC(C)C)[nH]4)cc3)cc2)[nH]1` [Compound S-220]: the “Fold-Synergistic 1a (Q30E)” value is given as greater than 10 fold. In the case of `CC(C)(C)COC(=O)N1CCC[C@H]1c1ncc(-c2ccc(-c3ccc(-c4cnc([C@@H]5CCCN5C(=O)OCC(C)(C)C)[nH]4)cc3)cc2)[nH]1` [Compound S-221] it was greater than 10 fold; in that of `CC(C)COC(=O)N1CCC[C@H]1c1ncc(-c2ccc(-c3ccc(-c4cnc([C@@H]5CCCN5C(=O)OCC(C)C)[nH]4)cc3)cc2)[nH]1` [Compound S-222], greater than 10 fold; in that of `O=C(Oc1ccccc1)N1CCC[C@H]1c1ncc(-c2ccc(-c3ccc(-c4cnc([C@@H]5CCCN5C(=O)Oc5ccccc5)[nH]4)cc3)cc2)[nH]1` [Compound S-223], greater than 100 fold.

Consider `C#CCOC(=O)N1CCC[C@H]1c1ncc(-c2ccc(-c3ccc(-c4cnc([C@@H]5CCCN5C(=O)OCC#C)[nH]4)cc3)cc2)[nH]1` [Compound S-224], for which the “Fold-Synergistic 1a (Q30E)” value is recorded as greater than 10 fold.

For `O=C(OC1CCCC1)N1CCC[C@H]1c1ncc(-c2ccc(-c3ccc(-c4cnc([C@@H]5CCCN5C(=O)OC5CCCC5)[nH]4)cc3)cc2)[nH]1` [Compound S-225], the “Fold-Synergistic 1a (Q30E)” value is greater than 10 fold.

On to `O=C(Oc1ccc2ccccc2c1)N1CCC[C@H]1c1ncc(-c2ccc(-c3ccc(-c4cnc([C@@H]5CCCN5C(=O)Oc5ccc6ccccc6c5)[nH]4)cc3)cc2)[nH]1` [Compound S-226], for which the “Fold-Synergistic 1a (Q30E)” value was greater than 100 fold.

`CC(C)[C@H](NC(=O)N(c1ccccc1)c1ccccc1)c1nc(-c2ccc(-c3ccc(-c4c[nH]c([C@@H](NC(=O)N(c5ccccc5)c5ccccc5)C(C)C)n4)cc3)cc2)c[nH]1` [Compound S-227]: the “Fold-Synergistic 1a (Q30E)” value is recorded as greater than 100 fold.

On to `CC(C)[C@H](NC(=O)N(C)C)c1nc(-c2ccc(-c3ccc(-c4c[nH]c([C@@H](NC(=O)N(C)C)C(C)C)n4)cc3)cc2)c[nH]1` [Compound S-228], for which the “Fold-Synergistic 1a (Q30E)” value is given as greater than 100 fold. Turning to `CCN(CC)C(=O)NC(c1nc(-c2ccc(-c3ccc(-c4c[nH]c(C(NC(=O)N(CC)CC)C(C)C)n4)cc3)cc2)c[nH]1)C(C)C` (stereo not drawn) [Compound S-229], the “Fold-Synergistic 1a (Q30E)” value was greater than 100 fold. Consider `CC(C)[C@H](NC(=O)N(C(C)C)C(C)C)c1nc(-c2ccc(-c3ccc(-c4c[nH]c([C@@H](NC(=O)N(C(C)C)C(C)C)C(C)C)n4)cc3)cc2)c[nH]1` [Compound S-230], for which the “Fold-Synergistic 1a (Q30E)” value was greater than 100 fold. Regarding `CC(C)[C@H](NC(=O)N1CCOCC1)c1ncc(-c2ccc(-c3ccc(-c4cnc([C@@H](NC(=O)N5CCOCC5)C(C)C)[nH]4)cc3)cc2)[nH]1` [Compound S-231], the “Fold-Synergistic 1a (Q30E)” value is greater than 10 fold. `CC(C)[C@H](NC(=O)N1CCCC1)c1ncc(-c2ccc(-c3ccc(-c4cnc([C@@H](NC(=O)N5CCCC5)C(C)C)[nH]4)cc3)cc2)[nH]1` [Compound S-232]: the “Fold-Synergistic 1a (Q30E)” value is listed as greater than 100 fold. In the case of `CC(C)[C@H](NC(=O)n1c2ccccc2c2ccccc21)c1ncc(-c2ccc(-c3ccc(-c4cnc([C@@H](NC(=O)n5c6ccccc6c6ccccc65)C(C)C)[nH]4)cc3)cc2)[nH]1` [Compound S-233] it was greater than 100 fold. In the case of `CC(C)[C@H](NC(=O)N1CCCCC1)c1ncc(-c2ccc(-c3ccc(-c4cnc([C@@H](NC(=O)N5CCCCC5)C(C)C)[nH]4)cc3)cc2)[nH]1` [Compound S-234] it was greater than 100 fold; in that of `CC(C)[C@H](NC(=O)N1CCN(C)CC1)c1ncc(-c2ccc(-c3ccc(-c4cnc([C@@H](NC(=O)N5CCN(C)CC5)C(C)C)[nH]4)cc3)cc2)[nH]1` [Compound S-235], greater than 10 fold.

Take `CC(C)[C@H](NC(=O)[C@H](NC(=O)OCc1ccccc1)C(C)C)c1ncc(-c2ccc(-c3ccc(-c4cnc([C@@H](NC(=O)[C@H](NC(=O)OCc5ccccc5)C(C)C)C(C)C)[nH]4)cc3)cc2)[nH]1` [Compound S-245]: the “Fold-Synergistic 1a (Q30E)” value is recorded as greater than 100 fold. In the case of `CC(C)COC(=O)N[C@@H](C(=O)N[C@H](c1ncc(-c2ccc(-c3ccc(-c4cnc([C@@H](NC(=O)[C@H](NC(=O)OCC(C)C)C(C)C)C(C)C)[nH]4)cc3)cc2)[nH]1)C(C)C)C(C)C` [Compound S-246] it was greater than 100 fold; in that of `CCOC(=O)N[C@@H](C(=O)N[C@H](c1ncc(-c2ccc(-c3ccc(-c4cnc([C@@H](NC(=O)[C@H](NC(=O)OCC)C(C)C)C(C)C)[nH]4)cc3)cc2)[nH]1)C(C)C)C(C)C` [Compound S-247], greater than 100 fold; in that of `CCCOC(=O)N[C@@H](C(=O)N[C@H](c1ncc(-c2ccc(-c3ccc(-c4cnc([C@@H](NC(=O)[C@H](NC(=O)OCCC)C(C)C)C(C)C)[nH]4)cc3)cc2)[nH]1)C(C)C)C(C)C` [Compound S-248], greater than 100 fold. In the case of `CCCCOC(=O)N[C@@H](C(=O)N[C@H](c1ncc(-c2ccc(-c3ccc(-c4cnc([C@@H](NC(=O)[C@H](NC(=O)OCCCC)C(C)C)C(C)C)[nH]4)cc3)cc2)[nH]1)C(C)C)C(C)C` [Compound S-249] it was greater than 100 fold; in that of `CC(C)OC(=O)N[C@@H](C(=O)N[C@H](c1ncc(-c2ccc(-c3ccc(-c4cnc([C@@H](NC(=O)[C@H](NC(=O)OC(C)C)C(C)C)C(C)C)[nH]4)cc3)cc2)[nH]1)C(C)C)C(C)C` [Compound S-250], greater than 100 fold. In the case of `CC(C)[C@H](NC(=O)[C@H](NC(=O)OC1CCCC1)C(C)C)c1ncc(-c2ccc(-c3ccc(-c4cnc([C@@H](NC(=O)[C@H](NC(=O)OC5CCCC5)C(C)C)C(C)C)[nH]4)cc3)cc2)[nH]1` [Compound S-251] it was greater than 100 fold; in that of `C#CCOC(=O)N[C@@H](C(=O)N[C@H](c1ncc(-c2ccc(-c3ccc(-c4cnc([C@@H](NC(=O)[C@H](NC(=O)OCC#C)C(C)C)C(C)C)[nH]4)cc3)cc2)[nH]1)C(C)C)C(C)C` [Compound S-252], greater than 100 fold. Turning to `CC(C)[C@H](NC(=O)[C@H](NC(=O)OCC(C)(C)C)C(C)C)c1ncc(-c2ccc(-c3ccc(-c4cnc([C@@H](NC(=O)[C@H](NC(=O)OCC(C)(C)C)C(C)C)C(C)C)[nH]4)cc3)cc2)[nH]1` [Compound S-253], the “Fold-Synergistic 1a (Q30E)” value is given as greater than 100 fold.

`COc1ccc2cc([C@@H](C)C(=O)N[C@H](c3nc(-c4ccc(-c5ccc(-c6c[nH]c([C@@H](NC(=O)[C@H](C)c7ccc8cc(OC)ccc8c7)C(C)(C)C)n6)cc5)cc4)c[nH]3)C(C)(C)C)ccc2c1` [Compound S-254]: the “Fold-Synergistic 1a (Q30E)” value is reported as greater than 100 fold. In the case of `CC(C)(C)[C@H](NC(=O)C1CCN(S(C)(=O)=O)CC1)c1nc(-c2ccc(-c3ccc(-c4c[nH]c([C@@H](NC(=O)C5CCN(S(C)(=O)=O)CC5)C(C)(C)C)n4)cc3)cc2)c[nH]1` [Compound S-255] it was greater than 100 fold; in that of `CCCC[C@@H](CC(=O)OC(C)(C)C)C(=O)N[C@H](c1nc(-c2ccc(-c3ccc(-c4c[nH]c([C@@H](NC(=O)[C@@H](CCCC)CC(=O)OC(C)(C)C)C(C)(C)C)n4)cc3)cc2)c[nH]1)C(C)(C)C` [Compound S-260], greater than 100 fold. In the case of `CC(C)(C)[C@H](NC(=O)C12CCC(CC1)C2)c1nc(-c2ccc(-c3ccc(-c4c[nH]c([C@@H](NC(=O)C56CCC(CC5)C6)C(C)(C)C)n4)cc3)cc2)c[nH]1` [Compound S-261] it was greater than 100 fold; in that of `CC(C)(C)OC(=O)N1CCC(C(=O)N[C@H](c2nc(-c3ccc(-c4ccc(-c5c[nH]c([C@@H](NC(=O)C6CCN(C(=O)OC(C)(C)C)CC6)C(C)(C)C)n5)cc4)cc3)c[nH]2)C(C)(C)C)CC1` [Compound S-264], greater than 100 fold; in that of `COc1ccc(CNC(C)(C)C(=O)N[C@H](c2nc(-c3ccc(-c4ccc(-c5c[nH]c([C@@H](NC(=O)C(C)(C)NCc6ccc(OC)cc6)C(C)(C)C)n5)cc4)cc3)c[nH]2)C(C)(C)C)cc1` [Compound S-267], greater than 100 fold.

On to `CN1CCC(C(=O)N[C@H](c2nc(-c3ccc(-c4ccc(-c5c[nH]c([C@@H](NC(=O)C6CCN(C)CC6)C(C)(C)C)n5)cc4)cc3)c[nH]2)C(C)(C)C)CC1` [Compound S-268], for which the “Fold-Synergistic 1a (Q30E)” value was greater than 10 fold. In the case of `CC(C)(C)OC(=O)NC1CCC(C(=O)N[C@H](c2nc(-c3ccc(-c4ccc(-c5c[nH]c([C@@H](NC(=O)C6CCC(NC(=O)OC(C)(C)C)CC6)C(C)(C)C)n5)cc4)cc3)c[nH]2)C(C)(C)C)CC1` (stereo partly drawn) [Compound S-270] it was greater than 100 fold; in that of `CC(C)(C)OC(=O)CC(C(=O)NC(c1nc(-c2ccc(-c3ccc(-c4c[nH]c(C(NC(=O)C(CC(=O)OC(C)(C)C)C5CCCC5)C(C)(C)C)n4)cc3)cc2)c[nH]1)C(C)(C)C)C1CCCC1` (stereo not drawn) [Compound S-272], greater than 100 fold; in that of `COC(=O)C1(C(=O)N[C@H](c2nc(-c3ccc(-c4ccc(-c5c[nH]c([C@@H](NC(=O)C6(C(=O)OC)CCCCC6)C(C)(C)C)n5)cc4)cc3)c[nH]2)C(C)(C)C)CCCCC1` [Compound S-273], greater than 100 fold. In the case of `CC(C)(C)[C@H](NC(=O)C(C)(C)n1cnnn1)c1nc(-c2ccc(-c3ccc(-c4c[nH]c([C@@H](NC(=O)C(C)(C)n5cnnn5)C(C)(C)C)n4)cc3)cc2)c[nH]1` [Compound S-277] it was greater than 100 fold; in that of `COC(=O)NN(C(=O)[C@@H]1CCC[C@H]1c1nc(-c2ccc(-c3ccc(-c4cnc([C@@H]5CCC[C@H]5C(=O)N(NC(=O)OC)C(C)C)[nH]4)cc3)cc2)c[nH]1)C(C)C` [Compound V-1], greater than 100 fold; in that of `CN(C)C(=O)C(=O)N[C@H](c1nc(-c2ccc(-c3ccc(-c4c[nH]c([C@@H](NC(=O)C(=O)N(C)C)C(C)(C)C)n4)cc3)cc2)c[nH]1)C(C)(C)C` [Compound W-10], greater than 100 fold.

In the case of `CC(C)(C)[C@H](NC(=O)C(=O)N1CCCCC1)c1nc(-c2ccc(-c3ccc(-c4c[nH]c([C@@H](NC(=O)C(=O)N5CCCCC5)C(C)(C)C)n4)cc3)cc2)c[nH]1` [Compound W-11], the “Fold-Synergistic 1a (Q30E)” value is given as greater than 100 fold.
